Experimental data published in ChEMBL document CHEMBL1201862, “PubChem BioAssay data set” (2004).
Calls of active or inactive are those of the source.

How the values were obtained:
[1] = molecular target: T1, Heat shock factor protein 1 (Mus musculus, UniProt P38532); test: decrease of HSF1-responsive luciferase luminescence – cell-based, NIH3T3, dose retest, confirmation (AID 2382); type: functional;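 also: NIH3T3 fibroblasts with HSF1-driven luciferase reporter stressed by proteasome inhibitor MG132; luminescence from HSF1-driven luciferase expression after 8 hours of MG132 stress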
T1 sequence (P38532 whole entry): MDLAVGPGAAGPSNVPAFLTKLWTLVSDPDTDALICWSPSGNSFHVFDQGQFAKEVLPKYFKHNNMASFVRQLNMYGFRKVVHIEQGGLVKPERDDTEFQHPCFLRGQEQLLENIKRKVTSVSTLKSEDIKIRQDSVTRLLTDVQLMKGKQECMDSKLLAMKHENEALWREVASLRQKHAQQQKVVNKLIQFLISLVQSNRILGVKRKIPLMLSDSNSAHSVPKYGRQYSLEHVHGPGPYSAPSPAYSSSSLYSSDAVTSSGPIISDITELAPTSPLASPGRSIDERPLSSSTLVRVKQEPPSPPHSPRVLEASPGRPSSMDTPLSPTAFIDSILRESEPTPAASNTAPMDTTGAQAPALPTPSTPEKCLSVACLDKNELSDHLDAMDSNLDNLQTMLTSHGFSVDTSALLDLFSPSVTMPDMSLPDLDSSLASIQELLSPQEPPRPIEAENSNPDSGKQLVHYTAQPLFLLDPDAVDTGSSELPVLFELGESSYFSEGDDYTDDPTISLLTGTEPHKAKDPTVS

[2] = molecular target: T2, Corticotropin-releasing factor receptor 2/Corticotropin-releasing factor-binding protein (Homo sapiens, UniProt P24387+Q13324); test: Dose Response confirmation of uHTS hits for small molecule antagonists of the CRF-binding protein and CRF-R2 receptor complex.; type: functional; conditions: read-out: IC50_Mean
T2 sequence (Q13324 whole entry): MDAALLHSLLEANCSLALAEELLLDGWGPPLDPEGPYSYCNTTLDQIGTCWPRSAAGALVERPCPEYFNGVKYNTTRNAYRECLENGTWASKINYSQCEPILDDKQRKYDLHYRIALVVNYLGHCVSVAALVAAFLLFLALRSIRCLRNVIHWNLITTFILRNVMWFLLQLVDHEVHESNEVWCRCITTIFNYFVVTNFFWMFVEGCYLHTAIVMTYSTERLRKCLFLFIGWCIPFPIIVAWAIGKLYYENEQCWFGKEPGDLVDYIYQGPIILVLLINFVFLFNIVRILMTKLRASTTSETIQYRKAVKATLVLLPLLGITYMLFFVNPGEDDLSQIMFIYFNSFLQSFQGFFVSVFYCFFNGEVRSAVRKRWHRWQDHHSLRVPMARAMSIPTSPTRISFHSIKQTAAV
T2 sequence (P24387 whole entry): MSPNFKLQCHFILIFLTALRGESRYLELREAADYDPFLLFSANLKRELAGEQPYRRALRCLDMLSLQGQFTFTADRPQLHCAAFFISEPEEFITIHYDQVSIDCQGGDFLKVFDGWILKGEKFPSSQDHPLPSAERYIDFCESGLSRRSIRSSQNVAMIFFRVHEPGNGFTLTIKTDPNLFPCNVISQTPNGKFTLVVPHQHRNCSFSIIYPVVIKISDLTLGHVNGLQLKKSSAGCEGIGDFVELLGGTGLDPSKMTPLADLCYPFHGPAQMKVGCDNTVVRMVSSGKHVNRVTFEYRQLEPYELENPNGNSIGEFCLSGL

[3] = molecular target: T2, Corticotropin-releasing factor receptor 2/Corticotropin-releasing factor-binding protein; test: activators of CRF receptor 2 with binding protein – uHTS hits, confirmation (AID 602473); type: functional; conditions: read-out: EC50_Mean
[4] = Luminescence Cell-Based Dose Response HTS to Identify Activators of Luciferase Translation or Activity in H4 […] Cells. [Related pubchem assays: 1829 (Project Summary), 1814 (Primary HTS)]; type: functional
H4 = test: Luminescence Cell-Based Dose Response HTS to Identify Activators of 5'UTR Stem-Loop Driven Prion Protein mRNA Translation in H4 Neuroglioblastoma Cells. [Related pubchem assays: 1829 (Project Summary), 1814 (Primary HTS)]; type: functional; conditions: Homo sapiens
[5] = Luminescence Cell-Based Dose Confirmation HTS to Identify Activators of 5'UTR Stem-Loop Driven Alpha-Synuclein mRNA Translation in H4 Neuroglioblastoma Cells. [Related pubchem assays: 1829 (Project Summary), 1814 (Primary HTS)]; type: functional
[6] = molecular target: T3, Rac GTPase-activating protein 1 (Homo sapiens, UniProt Q9H0H5); test: blockers of MgcRacGAP-driven Rac1 GTP hydrolysis – biochemical, ADP Hunter fluorescence, primary and confirmatory, confirmation (AID 624330); type: functional
T3 sequence (Q9H0H5 whole entry): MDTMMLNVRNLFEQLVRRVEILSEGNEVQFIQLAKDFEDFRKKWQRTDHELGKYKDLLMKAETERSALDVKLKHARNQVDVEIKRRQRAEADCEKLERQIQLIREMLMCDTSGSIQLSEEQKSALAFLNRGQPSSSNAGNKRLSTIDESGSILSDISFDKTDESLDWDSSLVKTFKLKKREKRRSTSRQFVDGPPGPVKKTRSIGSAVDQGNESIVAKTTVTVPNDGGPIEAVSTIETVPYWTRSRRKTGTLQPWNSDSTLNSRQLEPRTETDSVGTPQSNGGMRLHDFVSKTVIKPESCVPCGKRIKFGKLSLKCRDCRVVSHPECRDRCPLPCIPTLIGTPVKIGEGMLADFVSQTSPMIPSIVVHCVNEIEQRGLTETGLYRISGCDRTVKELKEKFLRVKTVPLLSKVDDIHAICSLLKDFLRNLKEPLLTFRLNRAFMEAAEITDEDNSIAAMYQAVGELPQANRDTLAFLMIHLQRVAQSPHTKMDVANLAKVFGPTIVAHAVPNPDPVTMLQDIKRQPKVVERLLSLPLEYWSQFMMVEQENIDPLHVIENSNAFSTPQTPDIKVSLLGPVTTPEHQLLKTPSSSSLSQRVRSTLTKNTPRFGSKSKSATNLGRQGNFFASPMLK

[7] = Luminescence Cell-Based Dose Retest to Confirm Inhibitors of Cancer Stem Cells. [Related pubchem assays (depositor defined):AID2717, AID2721]; type: functional; conditions: Homo sapiens
Cytochrome P450 3A4 = Cytochrome P450 3A4 (Homo sapiens, UniProt P08684);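 also: CYP3A4 tested as one member of a cytochrome P450 panel screen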
Cytochrome P450 2C19 = Cytochrome P450 2C19 (Homo sapiens, UniProt P33261); test: Cytochrome panel assay with activity outcomes. Panel member name: p450-cyp2c19 Compounds with AC50 equal or less than 10 uM are considered active; type: functional; conditions: read-out: AC50
[8] = NIH3T3 cell viability loss – ATP luminescence, mouse fibroblasts, counter-screen, dose response (AID 2010); type: functional, cell-based;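 also: cells exposed to compound for about 90 hours before reading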
[9] = Trypanosoma cruzi growth suppression in host cells – NIH3T3 host cells, beta-gal luminescence, confirmation (AID 2044); type: functional, cell-based;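 also: intracellular parasites grown in NIH/3T3 mouse fibroblasts as host cells; luminescent beta-galactosidase reporter signal from transgenic T. cruzi replicating inside host cells; inhibitors lower the luminescence signal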

Cytochrome P450 2C19, sequence (P33261 whole entry): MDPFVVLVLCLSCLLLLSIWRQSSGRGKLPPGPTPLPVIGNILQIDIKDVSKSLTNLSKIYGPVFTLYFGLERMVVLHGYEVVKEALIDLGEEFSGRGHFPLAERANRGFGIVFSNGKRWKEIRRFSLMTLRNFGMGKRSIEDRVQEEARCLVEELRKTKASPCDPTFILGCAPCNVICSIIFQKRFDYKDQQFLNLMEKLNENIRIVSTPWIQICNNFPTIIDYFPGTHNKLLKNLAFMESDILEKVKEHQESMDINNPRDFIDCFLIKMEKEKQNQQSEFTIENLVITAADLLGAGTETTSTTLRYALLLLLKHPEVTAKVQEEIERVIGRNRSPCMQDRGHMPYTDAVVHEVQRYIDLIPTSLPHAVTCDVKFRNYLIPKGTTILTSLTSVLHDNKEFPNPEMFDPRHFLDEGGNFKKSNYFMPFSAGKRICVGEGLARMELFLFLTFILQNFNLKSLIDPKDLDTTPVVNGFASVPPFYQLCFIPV
Cytochrome P450 3A4, sequence (P08684 whole entry): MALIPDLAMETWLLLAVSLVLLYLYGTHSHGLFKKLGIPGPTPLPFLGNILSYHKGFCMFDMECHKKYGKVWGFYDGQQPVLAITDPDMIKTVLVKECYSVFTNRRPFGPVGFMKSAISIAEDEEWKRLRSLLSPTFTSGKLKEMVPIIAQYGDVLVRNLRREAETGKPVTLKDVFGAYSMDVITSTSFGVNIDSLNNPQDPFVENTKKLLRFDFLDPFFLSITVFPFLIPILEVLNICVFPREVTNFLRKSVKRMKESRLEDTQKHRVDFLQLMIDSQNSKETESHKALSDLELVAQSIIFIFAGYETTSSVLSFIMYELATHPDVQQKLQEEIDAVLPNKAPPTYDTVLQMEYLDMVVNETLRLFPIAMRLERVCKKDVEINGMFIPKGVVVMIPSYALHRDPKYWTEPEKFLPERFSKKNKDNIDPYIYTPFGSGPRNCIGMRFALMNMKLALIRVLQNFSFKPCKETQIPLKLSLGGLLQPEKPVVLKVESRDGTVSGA

SMILES | EC50 [1] | EC50 [4] | EC50 (H4) | EC50 [5] | further results
Cc1c(Cl)cccc1NC(=O)c1cccc(OC(F)F)c1 | > 195 µM (not active) | – | – | – | –
CCOC(=O)C1CCN(c2ncnc3c2nnn3Cc2ccccc2Cl)CC1 | – | – | – | – | IC50 [2]: > 47.1 µM (inactive); EC50 [3]: > 53 µM (inactive)
CC(Sc1nnc(NCc2ccccc2)s1)C(=O)Nc1ccc2c(c1)C(=O)c1ccccc1C2=O (centres undefined) | – | 9.18 µM (active) | 49.2 µM (active) | 14.1 µM (active) | –
O=C(c1ccccc1)c1ccc(OCC(O)CN2CCCC2)cc1 (centres undefined) | > 195 µM (not active) | – | – | – | –
O=[N+]([O-])c1ccc(NCCOc2ccccc2Cl)nc1 | > 195 µM (not active) | – | – | – | –
Cc1cc(C(=O)N2CCN(c3cccc(Cl)c3)CC2)c(C)o1 | – | 20.8 µM (active) | > 120 µM (not active) | > 120 µM (not active) | –
CCOC(=O)c1c(C)nc2c(C)cccn12 | > 195 µM (not active) | – | – | – | –
CCOc1cc(/C=C2\SC(=S)N(Nc3ccccc3)C2=O)ccc1O | – | 9.91 µM (active) | 22.6 µM (active) | 8.87 µM (active) | –
COc1ccc(S(=O)(=O)N2CCOC2CNC(=O)C(=O)NCCc2ccccc2)cc1C (centres undefined) | – | – | – | – | IC50 [2]: > 47.1 µM (inactive); EC50 [3]: > 53 µM (inactive)
O=C(C1CCCN1S(=O)(=O)c1cccc2nsnc12)N1CCN(c2ccccc2)CC1 (centres undefined) | – | > 120 µM (not active) | > 120 µM (not active) | > 120 µM (not active) | –
CN1C(=O)C(O)(C2COC(C)(C)CC2=O)c2cc(Br)ccc21 (centres undefined) | – | – | – | – | IC50 [2]: > 47.1 µM (inactive); EC50 [3]: > 53 µM (inactive)
CN(C)c1ccc(/C=C2/C(=N\O)C3CCN2CC3)cc1 | – | 6.23 µM (active) | 28.8 µM (inconclusive) | 26 µM (active) | IC50 [6]: 75.5 µM (active)
COc1ccc(C2=NN(C(C#N)c3ccc(OC)cc3)C(c3ccccc3)C2)cc1 (centres undefined) | – | 8.15 µM (active) | > 120 µM (not active) | 5.24 µM (active) | –
O=c1c2cccnc2n(-c2ccccc2)n1Cc1c(Cl)cccc1Cl | > 195 µM (not active) | – | – | – | –
COc1cc(C=O)ccc1OCCOCCOc1ccc(Cl)cc1Cl | – | – | – | – | IC50 [2]: > 47.1 µM (inactive); EC50 [3]: > 53 µM (inactive)
O=c1c2ccccc2nnn1-c1ccc(Br)cc1 | – | 0.1 µM (active) | 19 µM (active) | 0.157 µM (active) | –
Cc1cc2nnc(SCC(=O)NCc3ccco3)n2c2ccccc12 | – | 5.13 µM (active) | > 120 µM (not active) | > 120 µM (not active) | AC50 [7]: 2.9 µM (active)

SMILES | EC50 [1] | EC50 [4] | EC50 (H4) | EC50 [5] | further results
CCOC(=O)N1CCN(Cc2nc3c(c(=O)n(C)c(=O)n3C)n2CCC(C)C)CC1 | – | – | – | – | IC50 [2]: > 47.1 µM (inactive); EC50 [3]: > 53 µM (inactive)
O=C(CNC(=O)c1ccco1)Nc1ccc2c(c1)OCCO2 | 0.274 µM (active) | – | – | – | –
CCOC(=O)c1cc(C#N)c(Oc2ccccc2OC)nc1-c1ccccc1 | – | – | – | – | IC50 [2]: > 47.1 µM (inactive); AC50 (Cytochrome P450 3A4): 11.2 µM (inconclusive); EC50 [3]: > 53 µM (inactive)
O=[N+]([O-])c1ccc(N2CCNCC2)cc1NCC1CCCO1 (centres undefined) | > 195 µM (not active) | – | – | – | AC50 (Cytochrome P450 2C19): 39.8 µM (inconclusive)
C=CCn1/c(=N/C(=O)C2CC2)sc2cc(NC(C)=O)ccc21 | > 195 µM (not active) | – | – | – | –
COc1ccc(-c2oc3ccccc3c2C(=O)Oc2ccccc2)cc1 | 152 µM (active) | – | – | – | –
c1ccc(CN2CCC(Nc3nc(-c4cccnc4)nc4ccccc34)CC2)cc1 | – | > 120 µM (not active) | 104 µM (active) | 13 µM (active) | EC50 [8]: 8.99 µM (active); EC50 [9]: 1.34 µM (active)
Cc1nc2ccc(NC(=O)c3cccc(S(=O)(=O)N4CCOCC4)c3)cc2s1 | – | – | – | – | IC50 [2]: > 47.1 µM (inactive); EC50 [3]: > 53 µM (inactive)
COc1ccc(NC(=O)CSc2nnc3ccc(-c4ccncc4)nn23)cc1OC | > 195 µM (not active) | – | – | – | –
COc1ccc(OC)c2c1s/c(=N\C(=O)C1COc3ccccc3O1)n2C (centres undefined) | – | – | – | – | IC50 [2]: > 47.1 µM (inactive); EC50 [3]: > 53 µM (inactive)
Cc1cccn2c(=O)c(/C=N/c3ccccc3)c(NCc3ccco3)nc12 | – | > 120 µM (not active) | > 120 µM (not active) | > 120 µM (not active) | –
Cc1cc(C)cc(OCC(O)CN2CCN(C(=O)c3ccco3)CC2)c1 (centres undefined) | > 195 µM (not active) | – | – | – | –
Cc1ccc(NC(=O)NC2=N/C(=C(/C#N)C(=O)N3CCCC3)c3ccccc32)cc1 | > 195 µM (not active) | – | – | – | –
CCOC(=O)c1sc2nc(C)n(CC(=O)NCC3CCCO3)c(=O)c2c1C (centres undefined) | – | – | – | – | IC50 [2]: > 47.1 µM (inactive); EC50 [3]: > 53 µM (inactive)
O=C1c2ccccc2NC(c2ccccc2Cl)N1N=C1CCCCCC1 (centres undefined) | – | 11.9 µM (active) | 0.493 µM (active) | 18.9 µM (active) | –
COc1ccc(C(CC(=O)Nc2ccc(F)cc2)c2ccccc2)cc1 (centres undefined) | – | – | – | – | IC50 [2]: 24.3 µM (active); EC50 [3]: > 53 µM (inactive)
CC(C)(C)c1ccc(C(=O)NCCN2CCOCC2)cc1 | – | 11.8 µM (active) | 18.3 µM (active) | 12.5 µM (active) | –
